Patent US20060004026A1, “Compositions for ameliorating attention-deficient/hyperactivity disorder” (priority 2001, published 2006)

Experiments:
[1] = test system: patients diagnosed attention-deficit hyperactivity disorder; assay: administration to patients diagnosed attention-deficit hyperactivity disorder; type: in vivo, human
Source text: The “attention-deficit hyperactivity disorder,” as referred to herein, to which the composition of the present invention is applied is a symptom judged on the basis of a diagnostic method for ADHD, as defined in DSM-IV Seishin Shogai no Shindan•Tokei Manyuaru (Diagnosis and Statistic Manuals for DSM-IV Mental Disorders) (published by Igakushoin, 1996). Concretely, an individual with ADHD meets the following criteria.
In addition, the diagnosis is made under the conditions that some of these symptoms have caused problems before reaching 7-years old, and that any problems take place at present in two or more different locations (examples: school and home). Also, the judgment is made only in the case where serious disorders are recognized in social life, schoolwork and vocational work, and any of the symptoms are not caused by other diseases.
The exhibition of the action for mitigating or alleviating attention-deficit hyperactivity disorder by theanine can be evaluated by a clinical test in which theanine is administered to a patient who meets the above-mentioned [Criteria for Diagnosis], and any ameliorative effects on attention-deficit hyperactivity disorder are observed, as compared to that before the administration of theanine.
Five patients who were diagnosed attention-deficit hyperactivity disorder by doctors were administered with a composition containing L-theanine. The composition was prepared so that L-theanine was mixed with crystalline cellulose, sucrose fatty acid ester, reducing maltose, silicon dioxide, lactose and aspartame so as to have the content of L-theanine of 20% by weight, and tableting the mixture to prepare a tablet.

mouse = assay: acute toxic test using a mouse; type: in vivo; conditions: oral administration at 5 g/kg
Source text: The theanine used in the present invention has high safety. […] Also, especially L-theanine is known as a main component of umami (tastiness) of the green tea, and is also used as a food additive giving umami, without the limitation of its added amount under the regulation for food hygiene. Moreover, contrary to the conventional drugs, since there is no side effect by theanine at all, the amelioration of attention-deficit hyperactivity disorder can be safely and effectively achieved according to the composition of the present invention.

Compound: CCNC(=O)CC[C@H](N)C(=O)O [L-theanine]
- effect judged by the doctor in charge ([1]; Patient 1, 50 mg/day over 8 weeks): effective
- ADHD symptoms after the termination of the administration ([1]; Patient 1, 50 mg/day over 8 weeks, tablet with 20% by weight L-theanine): substantially disappeared
- ADHD symptoms after the termination of the administration ([1]; Patient 2 (person one), 200 mg/day over 10 weeks): substantially disappeared
- effect judged by the doctor in charge ([1]; Patient 2, 200 mg/day over 10 weeks): effective
- ADHD symptoms ([1]; Patient 3, 100 mg/day together with Ritalin over 1 week): substantially disappeared
- behaviour at school on the day of administration ([1]; Patient 4, 200 mg/day only once before school): could attend the classes without any problems
- state of symptoms in the following day (maintenance by a single dosage) ([1]; Patient 4, 200 mg/day only once, following day): returned to the original state of symptoms
- ADHD symptoms after the termination of the administration ([1]; Patient 5, 60 mg/day over 1 week): remarkably ameliorated

Compound: COC(=O)C(c1ccccc1)C1CCCCN1 (stereo not drawn) [Ritalin, methylphenidate, reference compound]
- ADHD symptoms during the administration ([1]; Patient 2, earlier treatment with Ritalin): stabilized
- side effects ([1]; Patient 2, earlier treatment with Ritalin, administration was stopped): serious

Compound: CCNC(=O)CC[C@H](N)C(=O)O [theanine, γ-glutamylethylamide]
- abnormalities in the general states, weight and the like (mouse): no abnormalities
- cases of death (mouse): no cases of death
